For one experiment, the target named is human MLKL (full length) (Homo sapiens (Human), UniProt Q8NB16). As to the kind of experiment: KINOMEscan binding assay, human MLKL (full length). The conditions noted are these: hMLKL, Table 25; read-out: MLKL (KD). Put shortly: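 KINOMEscan competition binding using kinase-tagged T7 phage or HEK-293-produced DNA-tagged protein captured on ligand beads, with eluted protein quantified by qPCR. Compounds were run as an 11-point 3-fold series, top 30,000 nM, in 1% DMSO. Kd was fitted with the Hill equation, slope fixed at −1.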
Chain of human MLKL (full length) (Q8NB16 whole entry): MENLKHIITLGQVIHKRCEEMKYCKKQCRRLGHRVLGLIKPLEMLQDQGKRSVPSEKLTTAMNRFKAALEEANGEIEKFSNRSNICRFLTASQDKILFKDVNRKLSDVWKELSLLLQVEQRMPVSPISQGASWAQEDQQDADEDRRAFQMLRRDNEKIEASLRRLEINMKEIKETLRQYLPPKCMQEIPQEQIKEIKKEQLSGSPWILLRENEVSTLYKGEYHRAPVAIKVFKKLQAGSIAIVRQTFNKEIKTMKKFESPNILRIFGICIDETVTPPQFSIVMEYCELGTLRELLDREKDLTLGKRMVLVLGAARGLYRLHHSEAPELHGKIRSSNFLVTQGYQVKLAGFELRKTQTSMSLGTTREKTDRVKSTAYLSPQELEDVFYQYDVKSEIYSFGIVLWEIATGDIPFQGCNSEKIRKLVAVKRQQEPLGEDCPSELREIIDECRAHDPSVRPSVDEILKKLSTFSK

The next experiment has as its target endogenous MLKL in U937 (Homo sapiens (Human), UniProt Q8NB16). As to the kind of experiment: Degradation assay: endogenous MLKL in U937 (western blot). Particulars: U937, 24 h incubation, read-out: Degradation of endogenous MLKL in U937 (DC50 cell-based assay). The procedure:
Degradation Assay: Screening Compounds Procedure to Evaluate the Activity of Compounds in Degrading Endogenous MLKL in Human and Mouse Cell
The mouse dermal fibroblast (MDF) cell line was seeded the day before the experiment in a 24-well plate at a cell density of […] per well in a volume of 0.5 mL per well and left to attach overnight. The human monocyte cell line (U937) was seeded on the day of the experiment in a 24-well plate at a cell density of […] per well in a volume of 0.5 mL per well.
The compound was diluted in DMSO with a starting concentration of 10 mM and titrated stepwise with a dilution of 1:5. 0.5 μL of the compound dilution was added to the appropriate well to achieve a final concentration of 10; 2; 0.4; 0.08 and 0.016 μM. A DMSO only well was included as control.
The cells were incubated for 24 h in the presence of the compound at 37° C. and 10% CO2.
After the 24 h incubation period, the medium was removed and cells washed with 0.5 mL PBS. The cells were then lysed directly in 60 μL of 1×SDS gel loading buffer.
The cell lysate was heat-denatured at […] for 10 min. 10 μL of lysate per well were run on 18-well 4-15% Criterion TGX stain free gels (BIO-RAD). The proteins were then transferred onto nitrocellulose membrane with a wet transfer protocol in the Criterion Blotter (BIO-RAD).
Membranes were blocked with 5% skim milk in TBST. Primary antibody against MLKL (clone 3H1, MABC604 Merck) was used at 1:2000 dilution in TBST with 1% BSA and left shaking over night at 4° C. After washes with TBST, the membranes were incubated with goat anti-rat IgG HRP-conjugated antibody (Southern Biotech) in 1% skim milk TBST at 1:10000 dilution for 1 h at room temperature. After TBST washes the bands were imaged on the ChemiDoc MP Imaging System (BIO-RAD) with Immobilion Western Chemiluminescent HRP Substrate Forte (Millipore). The loading control GAPDH was probed for with rabbit anti-GAPDH (CST 14C10) at 1:2000 dilution in 1% BSA TBST over night at 4° C. TBST washes were followed by incubation with goat anti-rabbit IgG HRP-conjugated antibody (Southern Biotech) in 1% skim milk TBST at 1:10000 dilution for 1 h at room temperature followed by TBST washes. The signal was detected as described above.
The band intensity was measured in the ImageLab Software (BIO-RAD) and the MLKL values adjusted for loading with GAPDH. The percentage of degradation was calculated by normalizing the compound treated values to the DMSO only control.
For orientation: A western blot detects proteins with antibodies after separation by electrophoresis.

In another experiment the target is endogenous MLKL in MDF (Mus musculus (Mouse), UniProt Q9D2Y4). Briefly: Degradation assay: endogenous MLKL in MDF (western blot). Particulars: MDF cells, 24 h incubation with compound, MLKL adjusted for loading with GAPDH, normalized to DMSO only control, read-out: Degradation of endogenous MLKL in MDF (DC50 cell-based assay). The method in brief: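 Western blot band intensity of MLKL, adjusted to GAPDH loading and normalized to DMSO-only wells, gave percent degradation. Compound exposure lasted 24 h at final concentrations of 10–0.016 μM in 1:5 steps, in mouse dermal fibroblasts or human U937 cells.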
Chain of endogenous MLKL in MDF (Q9D2Y4 whole entry): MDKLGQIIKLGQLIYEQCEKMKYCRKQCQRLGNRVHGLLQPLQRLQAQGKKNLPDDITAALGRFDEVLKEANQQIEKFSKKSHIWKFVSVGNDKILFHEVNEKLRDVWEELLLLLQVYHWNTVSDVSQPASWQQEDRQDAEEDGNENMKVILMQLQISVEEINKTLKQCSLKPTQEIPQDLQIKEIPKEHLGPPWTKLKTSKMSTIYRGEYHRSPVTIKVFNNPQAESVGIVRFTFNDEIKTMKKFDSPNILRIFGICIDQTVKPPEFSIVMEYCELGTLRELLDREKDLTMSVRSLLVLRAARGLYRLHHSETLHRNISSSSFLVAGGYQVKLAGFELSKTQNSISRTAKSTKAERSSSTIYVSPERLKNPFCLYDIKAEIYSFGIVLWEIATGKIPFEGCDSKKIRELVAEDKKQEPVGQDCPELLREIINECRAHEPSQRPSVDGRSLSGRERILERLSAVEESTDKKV

Experiment [1] relates to Immortalised Mouse Dermal Fibroblasts (MDFs). As to the kind of experiment: Cellular assay: inhibition of TSI induced necroptosis, CellTitre-Glo viability. The conditions noted are these: Mus musculus, Fibroblast; MDF, 3 hours TSI cocktail, Table 27; read-out: Inhibition of TSI-induced necroptosis (IC50 cell-based assay) in MDF. The method in brief: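 Necroptosis induced for 3 h with TSI: rhTNF 100 ng/ml, Smac mimetic 500 nM, caspase inhibitor IDN-6556 10 μM. Mouse dermal fibroblasts had received compound (36 μM top, ten three-fold steps) 30 min beforehand. ATP-based viability scaled between untreated and TSI-only wells; IC50 taken as 4-parameter curve inflection.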

Some results are limits rather than exact numbers.

Results on 10 compounds are retold here after patent US20250115598A1 (Anaxis Pharma Pty Ltd, priority 2021, published 2025).

Chain of endogenous MLKL in U937 (Q8NB16 whole entry): as the sequence (Q8NB16 whole entry) above

In the case of `CCS(=O)(=O)Nc1ccc(-c2nn(C)c3c(-c4cnn(CCCCCCCOc5cccc6c5C(=O)N(C5CCC(=O)NC5=O)C6=O)c4)cnc(N)c23)cc1F` (stereo not shown) [Compound 1059, N-(4-{4-amino-7-[1-(7-{[2-(2,6-dioxopiperidin-3-yl)-1,3-dioxo-2,3-dihydro-1H-isoindol-4-yl]oxy}heptyl)-1H-pyrazol-4-yl]-1-methyl-1H-pyrazolo[4,3-c]pyridin-3-yl}-2-fluorophenyl)ethane-1-sulfonamide], at human MLKL (full length), the Kd is less than 10 nM. Moreover, the 50% degradation concentration (DC50) on endogenous MLKL in U937 and on endogenous MLKL in MDF was less than 1000 nM in each case.
Take `Cc1ncsc1-c1ccc(CNC(=O)[C@@H]2C[C@@H](O)CN2C(=O)[C@@H](NC(=O)COCCCCn2cc(-c3cnc(N)c4c(-c5ccc(NS(=O)(=O)C(F)F)c(O[C@@H](C)c6ccc(F)cc6)c5)nn(C)c34)cn2)C(C)(C)C)cc1` [Compound 1056, (2S,4R)-1-[(2S)-2-{2-[4-(4-{4-amino-3-[4-(difluoromethanesulfonamido)-3-[(1S)-1-(4-fluorophenyl)ethoxy]phenyl]-1-methyl-1H-pyrazolo[4,3-c]pyridin-7-yl}-1H-pyrazol-1-yl)butoxy]acetamido}-3,3-dimethylbutanoyl]-4-hydroxy-N-{[4-(4-methyl-1,3-thiazol-5-yl)phenyl]methyl}pyrrolidine-2-carboxamide]: the equilibrium dissociation constant (Kd) on human MLKL (full length) was in the range of 10 to 1000 nM. Further, the DC50 at endogenous MLKL in U937 is less than 1000 nM; on endogenous MLKL in MDF it was 1000 to 10000 nM.
Regarding “(2S,4R)-1-[(2S)-2-(9-{4-amino-3-[4-(difluoromethanesulfonamido)-3-fluorophenyl]-1-methyl-1H-pyrazolo[4,3-c]pyridin-7-yl}non-8-ynamido)-3,3-dimethylbutanoyl]-4-hydroxy-N-{[4-(4-methyl-1,3-thiazol-5-yl)phenyl]methyl}pyrrolidine-2-carboxamide [Compound 1046]”, the DC50 on endogenous MLKL in U937 is less than 1000 nM.
For the compound `Cc1ncsc1-c1ccc(CNC(=O)[C@@H]2C[C@@H](O)CN2C(=O)[C@@H](NC(=O)CCOCCCn2cc(-c3cnc(N)c4c(-c5ccc(NS(=O)(=O)C(F)F)c(O[C@@H](C)c6ccc(F)cc6)c5)nn(C)c34)cn2)C(C)(C)C)cc1` [Compound 1040, (2S,4R)-1-[(2S)-2-{3-[3-(4-{4-amino-3-[4-(difluoromethanesulfonamido)-3-[(1S)-1-(4-fluorophenyl)ethoxy]phenyl]-1-methyl-1H-pyrazolo[4,3-c]pyridin-7-yl}-1H-pyrazol-1-yl)propoxy]propanamido}-3,3-dimethylbutanoyl]-4-hydroxy-N-{[4-(4-methyl-1,3-thiazol-5-yl)phenyl]methyl}pyrrolidine-2-carboxamide], on human MLKL (full length), the equilibrium dissociation constant (Kd) is less than 10 nM. Besides, on endogenous MLKL in U937, the half-maximal degradation concentration (DC50) was 1000 to 10000 nM.
For `Cn1nc(-c2ccc(NS(=O)(=O)C(F)F)c(F)c2)c2c(N)ncc(-c3cnn(C4CCN(C(=O)[C@H]5C[C@H](Nc6cccc7c6C(=O)N(C6CCC(=O)NC6=O)C7=O)C5)CC4)c3)c21` (stereo partly drawn) [Compound 1114, N-{4-[4-amino-1-methyl-7-(1-{1-[(trans)-3-{[2-(2,6-dioxopiperidin-3-yl)-1,3-dioxo-2,3-dihydro-1H-isoindol-4-yl]amino}cyclobutanecarbonyl]piperidin-4-yl}-1H-pyrazol-4-yl)-1H-pyrazolo[4,3-c]pyridin-3-yl]-2-fluorophenyl}-1,1-difluoromethanesulfonamide], on human MLKL (full length), the Kd was less than 10 nM. The DC50 on endogenous MLKL in U937 and on endogenous MLKL in MDF was less than 1000 nM each time.
As to `C[C@H](Oc1cc(-c2nn(C)c3c(C#CCCCCCCNC(=O)COc4cccc5c4C(=O)N(C4CCC(=O)NC4=O)C5=O)cnc(N)c23)ccc1NS(=O)(=O)C(F)F)c1ccc(F)cc1` (stereo partly drawn) [Compound 1097, N-(8-{4-amino-3-[4-(difluoromethanesulfonamido)-3-[(1S)-1-(4-fluorophenyl)ethoxy]phenyl]-1-methyl-1H-pyrazolo[4,3-c]pyridin-7-yl}oct-7-yn-1-yl)-2-{[2-(2,6-dioxopiperidin-3-yl)-1,3-dioxo-2,3-dihydro-1H-isoindol-4-yl]oxy}acetamide], the dissociation constant Kd at human MLKL (full length) was less than 10 nM. At endogenous MLKL in U937, the half-maximal degradation concentration (DC50) is less than 1000 nM.
On to `Cc1ncsc1-c1ccc(CNC(=O)[C@@H]2C[C@@H](O)CN2C(=O)[C@@H](NC(=O)CCCCCCC#Cc2cnc(N)c3c(-c4ccc(NS(=O)(=O)C(F)F)c(F)c4)nn(C)c23)C(C)(C)C)cc1` [Compound 1052, (2S,4R)-1-[(2S)-2-(9-{4-amino-3-[4-(difluoromethanesulfonamido)-3-fluorophenyl]-1-methyl-1H-pyrazolo[4,3-c]pyridin-7-yl}non-8-ynamido)-3,3-dimethylbutanoyl]-4-hydroxy-N-{[4-(4-methyl-1,3-thiazol-5-yl)phenyl]methyl}pyrrolidine-2-carboxamide], for which the Kd on human MLKL (full length) was in the range of 10 to 1000 nM. For the same compound, the DC50 on endogenous MLKL in U937 lay in the range of 1000 to 10000 nM.
`Cc1ncsc1-c1ccc(CNC(=O)[C@@H]2C[C@@H](O)CN2C(=O)[C@@H](NC(=O)COCCOCC#Cc2cnc(N)c3c(-c4ccc(NS(=O)(=O)C(F)F)c(O[C@@H](C)c5ccc(F)cc5)c4)nn(C)c23)C(C)(C)C)cc1` [Compound 1075, (2S,4R)-1-[(2S)-2-(2-{2-[(3-{4-amino-3-[4-(difluoromethanesulfonamido)-3-[(1S)-1-(4-fluorophenyl)ethoxy]phenyl]-1-methyl-1H-pyrazolo[4,3-c]pyridin-7-yl}prop-2-yn-1-yl)oxy]ethoxy}acetamido)-3,3-dimethylbutanoyl]-4-hydroxy-N-{[4-(4-methyl-1,3-thiazol-5-yl)phenyl]methyl}pyrrolidine-2-carboxamide]: the Kd at human MLKL (full length) was less than 10 nM. For the same compound, on endogenous MLKL in U937, the DC50 is less than 1000 nM.
Regarding `C[C@H](Oc1cc(-c2nn(C)c3c(-c4cnn(C5CCN(C(=O)C6CCCN(c7cccc8c7C(=O)N(C7CCC(=O)NC7=O)C8=O)C6)CC5)c4)cnc(N)c23)ccc1NS(=O)(=O)C(F)F)c1ccc(F)cc1` (stereo partly drawn) [Compound 1077, N-(4-{4-amino-7-[1-(1-{1-[2-(2,6-dioxopiperidin-3-yl)-1,3-dioxo-2,3-dihydro-1H-isoindol-4-yl]piperidine-3-carbonyl}piperidin-4-yl)-1H-pyrazol-4-yl]-1-methyl-1H-pyrazolo[4,3-c]pyridin-3-yl}-2-[(1S)-1-(4-fluorophenyl)ethoxy]phenyl)-1,1-difluoromethane-sulfonamide], the IC50 in experiment [1] lay within 1000 to 10000 nM. Moreover, the 50% degradation concentration (DC50) on endogenous MLKL in U937 lay in the range of 1000 to 10000 nM.
In the case of `CN[C@@H](C)C(=O)N[C@H](C(=O)N1C[C@H](NC(=O)CCCCCCn2cc(-c3cnc(N)c4c(-c5ccc(NS(=O)(=O)C(F)F)c(O[C@@H](C)c6ccc(F)cc6)c5)nn(C)c34)cn2)C[C@H]1C(=O)Nc1c(F)cccc1F)C(C)(C)C` [Compound 1101, (2S)-4-[7-(4-{4-amino-3-[4-(difluoromethanesulfonamido)-3-[(1S)-1-(4-fluorophenyl)ethoxy]phenyl]-1-methyl-1H-pyrazolo[4,3-c]pyridin-7-yl}-1H-pyrazol-1-yl)heptanamido]-N-(2,6-difluorophenyl)-1-[(2S)-3,3-dimethyl-2-[(2S)-2-(methylamino)propanamido]butanoyl]pyrrolidine-2-carboxamide], the Kd on human MLKL (full length) was less than 10 nM. Further, the DC50 at endogenous MLKL in U937 was less than 1000 nM.

As usually defined, the Kd is a measure of binding affinity in units of concentration. For orientation: DC50 means the midpoint of the concentration-degradation curve. By IC50 is commonly meant the concentration needed to halve the response being measured.
